The text below walks through data of patent publication US11427615B2, “Peptide compound and application thereof, and composition containing peptide compound” (XDCEXPLORER (SHANGHAI) CO., LTD., priority 2017, dated 2022).

The EC50 is the concentration that produces a half-maximal response.

Non-standard residues stand in square brackets, D forms with d. Residues, ends and D or L forms follow the SMILES beside them. *: point of attachment. X13 = CCCCCCCCCCCCCCCCSC1CC(=O)N(CCOCCOCCOCCOCCOCCOCCOCCOCCC(=O)*)C1=O; X8 = CCCCCCCCCCCCCCCCc1cn(CCOCCOCCOCCOCCOCCOCCOCCOCCC(=O)*)nn1; Arg(Me) = CNC(=N)NCCC[C@H](N)C(=O)O; Ala(cPr) = N[C@@H](CC1CC1)C(=O)O; Hyp = O=C(O)[C@@H]1C[C@@H](O)CN1; Gly(cPr) = N[C@H](C(=O)O)C1CC1; αMeL = CC(C)C[C@](C)(N)C(=O)O; Cba = N[C@@H](CC1CCC1)C(=O)O; Ac6c = NC1(C(=O)O)CCCCC1; Aze = O=C(O)[C@@H]1CCN1; azaGly = NNC(=O)O

For one assay, the target named is T1, human kiss1 receptor (GPR54) (Homo sapiens, UniProt Q969F8).
T1 construct: host or cells: NFAT-bla CHO-K1 cells (Chinese hamster ovary), purchased recombinant cell line
T1 sequence (Q969F8 whole entry): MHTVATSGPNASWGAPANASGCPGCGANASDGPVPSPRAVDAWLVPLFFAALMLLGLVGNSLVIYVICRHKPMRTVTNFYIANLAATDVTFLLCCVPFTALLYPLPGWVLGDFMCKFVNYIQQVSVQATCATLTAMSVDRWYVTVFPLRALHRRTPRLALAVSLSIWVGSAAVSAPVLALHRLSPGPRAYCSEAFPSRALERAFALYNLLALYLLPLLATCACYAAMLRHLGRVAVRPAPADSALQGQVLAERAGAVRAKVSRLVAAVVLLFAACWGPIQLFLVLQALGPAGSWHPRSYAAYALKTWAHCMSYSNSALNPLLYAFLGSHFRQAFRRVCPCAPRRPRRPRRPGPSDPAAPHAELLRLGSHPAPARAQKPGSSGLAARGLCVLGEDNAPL
Briefly: Kiss1 receptor (GPR54) binding activity of agonists, FRET detection in NFAT-bla CHO-K1 cells. It is filed as cell-based. The note with it: GPR54; measured according to the method of effect Embodiment 1; preliminary data; read-out: Preliminary measurement data (GPR54) EC50.
Protocol: Effect Embodiment 1 Determination of Kiss1 Receptor (GPR54) Binding Activity of Kiss1 Receptor (GPR54) Agonist
The binding activity test of each compound from the above the embodiments with kiss1 receptor (GPR54) was performed by fluorescence energy resonance transfer (FRET) detection technology to detect EC50 values of polypeptides and peptide analogs. The cells used in this experiment were NFAT-bla CHO-K1 cells (k1720, invitrogen, thermosher) that express human kiss1 receptor (GPR54). The specific operations were as follows:
Day 1: Seeding Cells in Plate
1. Microscope (CKX41, OLYMPUS), object lens×4 times, ocular lens×10 times. The cells were ensured in a good condition.
2. Digesting the cells, adding 3 ml of 0.05% pancreatin into a culture dish; cells were placed in a 37° C., 5% CO2 incubator for 2 minutes (Thermo Fisher). After the cells became round under the microscope, 7 ml of culture medium was added. The formula of culture medium was as follows: DMEM 90%, dialzedfbS10, NEAA 0.1 mM, HEPES 25 mM, Penicillin 100 U/ml, Streptomycin 100 μm/ml, pH7.3. After blowing and stirring, it was transferred to 15 mL centrifuge tube (430790, Corning). Centrifuge at 1000 rpm for 5 min (5810R, Eppendorf) and the supernatant was discard.
3. Adding 7 mL of culture medium (DMEM+0.1% BSA), it was pipetting into single cell suspension, after counting with Bio-RAD counter, the cell density was adjusted to 312,500 cells/ml.
4. Cells were inoculated into 384 well plates at 32 μL per well, and the cell number was controlled at 10000 cells/well. 32 μl of culture medium was added into the blank control.
Day 2: Dosing and Data Analysis
1) The compound to be tested was prepared into 50 mM working solution with DMSO.
2) 40 μl of the working solution of the compound to be tested was added into column 2 of row A-H of U-shaped 96-well plate (3797, comings), and 60 μl of DMSO was added into column 3-11. 20 μl of compound solution was sucked from the second column to the third column with a multichannel pipette blowing and stirring evenly; 20 μl of compound solution was absorbed from the third column with a multichannel pipette, then added into the fourth column, blowed and stirred to mix well; the compound was serially diluted 4-fold to a total of 10 concentrations. Column 1 and column 12 of 96-well plates were supplemented with 40 μl DMSO.
2. Intermediate Plate Configuration
1) AU-shaped 96-well plate was used, 199 μL of culture medium (DMEM+0.1% BSA) was added to each well, 1 μL of diluted compound (or DMSO) was sucked from 1000× compound plate and added into the 96-well plate at the corresponding position, blowed and stirred to mix well.
2) Homemade positive compounds and compounds to be tested were added. The cell culture plate was took out from the incubator and cells state was observed under microscope. Diluted compound in the intermediate plate or DMSO was added into the cell, 8 μl per well.
3) Cells were cultured in 37° C. and 5% CO2 for 4 hours.
3. The Substrate was Added to Detect the Binding of the Drug to the Receptor
1) 1 μmol/L CCF-4AM solution and buffer solution B, C, D were equilibrated to room temperature. LiveBLAZER™-FRET B/G Loading Kit (K1095, thermo Fisher) containing CCF-4AM and solution B, solution C, solution D were also available from Invitrogen (K1157, thermo Fisher).
2) 6× loading solution was prepared: 6 μl of CCF-4AM dissolved solution A, 60 μl of solution b, 904 μl of solution c, and 30 μl of solution D were pipetted into EP tube, blowed and stirred to mix well.
3) 8 μl of the above-mentioned liquid was sucked with a multichannel pipette, added into a 96-well plate, and incubated for 2 hours at room temperature.
4) The PerkinElmer detector was used to detect the luminous signals of each hole. FI mode, λex=409 nm, λem1=460 nm, λem2=530 nm.
4. Data Processing Using Graphpad Prism 5 (GraphPad Software. Inc)
Effective rate %=(Signal−Min)/(Max−Min)×100%.
As for `CCCCCCCCCCCCCCCCc1cn(CCOCCOCCOCCOCCOCCOCCOCCOCCC(=O)NCC(=O)NCC(=O)N[C@H](Cc2ccc(O)cc2)C(=O)N2C[C@H](O)C[C@H]2C(=O)N[C@@H](CC(N)=O)C(=O)N[C@H](C(=O)N[C@@H](Cc2ccccc2)C(=O)NNC(=O)N[C@@H](CC(C)C)C(=O)N[C@@H](CCCNC(=N)NC)C(=O)N[C@@H](Cc2c[nH]c3ccccc23)C(N)=O)[C@@H](C)O)nn1` [YA-367, M10 [Hexadecyl-1,2,3-Triazole-PEG8, G43, G44, D-Tyr45, Hyp46, des47, T49, AzaGly51, R(Me)53, W54]] (X8-GG[dY][Hyp]NTF[azaGly]L[Arg(Me)]W-NH2), the EC50 was 0.103 nM. For `CCCCCCCCCCCCCCCCSC1CC(=O)N(CCOCCOCCOCCOCCOCCOCCOCCOCCC(=O)NCC(=O)NCC(=O)N[C@H](Cc2ccc(O)cc2)C(=O)N2C[C@H](O)C[C@H]2C(=O)N[C@@H](CC(N)=O)C(=O)N[C@H](C(=O)N[C@@H](Cc2ccccc2)C(=O)NNC(=O)N[C@@H](CC(C)C)C(=O)N[C@@H](CCCNC(=N)NC)C(=O)N[C@@H](Cc2c[nH]c3ccccc23)C(N)=O)[C@@H](C)O)C1=O` (stereo partly drawn) [YA-368, M10 [Hexadecyl-S-maleimide-PEG8, G43, G44, D-Tyr45, Hyp46, des47, T49, AzaGly51, R(Me)53, W54]] (X13-GG[dY][Hyp]NTF[azaGly]L[Arg(Me)]W-NH2), the EC50 stood at 0.051 nM. Take `CNC(=N)NCCC[C@H](NC(=O)[C@H](CC(C)C)NC(=O)NNC(=O)[C@H](Cc1ccccc1)NC(=O)[C@@H](NC(=O)[C@H](CC(N)=O)NC(=O)[C@](C)(CC(C)C)NC(=O)[C@@H](Cc1ccc(O)cc1)NC(C)=O)[C@@H](C)O)C(=O)N[C@@H](Cc1c[nH]c2ccccc12)C(N)=O` [YA-379, Ac-(D-Tyr)-AlphaMeLeu-Asn-Thr-Phe-azaGly-Leu-Arg(Me)-Trp-NH2] (Ac-[dY][αMeL]NTF[azaGly]L[Arg(Me)]W-NH2): the EC50 turned out to be 0.015 nM. For `CNC(=N)NCCC[C@H](NC(=O)[C@H](CC(C)C)NC(=O)NNC(=O)[C@H](Cc1ccccc1)NC(=O)[C@@H](NC(=O)[C@H](CC(N)=O)NC(=O)[C@H](CC1CCC1)NC(=O)[C@@H](Cc1ccc(O)cc1)NC(C)=O)[C@@H](C)O)C(=O)N[C@@H](Cc1c[nH]c2ccccc12)C(N)=O` [YA-380, Ac-(D-Tyr)-Cba-Asn-Thr-Phe-azaGly-Leu-Arg(Me)-Trp-NH2] (Ac-[dY][Cba]NTF[azaGly]L[Arg(Me)]W-NH2), the EC50 is 0.191 nM. Consider `CNC(=N)NCCC[C@H](NC(=O)[C@H](CC(C)C)NC(=O)NNC(=O)[C@H](Cc1ccccc1)NC(=O)[C@@H](NC(=O)[C@H](CC(N)=O)NC(=O)[C@H](CC1CC1)NC(=O)[C@@H](Cc1ccc(O)cc1)NC(C)=O)[C@@H](C)O)C(=O)N[C@@H](Cc1c[nH]c2ccccc12)C(N)=O` [YA-383, Ac-(D-Tyr)-Cpa-Asn-Thr-Phe-azaGly-Leu-Arg(Me)-Trp-NH2] (Ac-[dY][Ala(cPr)]NTF[azaGly]L[Arg(Me)]W-NH2), for which the EC50 turned out to be 0.074 nM. On to `CNC(=N)NCCC[C@H](NC(=O)[C@H](CC(C)C)NC(=O)NNC(=O)[C@H](Cc1ccccc1)NC(=O)C1(NC(=O)[C@H](CC(N)=O)NC(=O)[C@@H]2C[C@@H](O)CN2C(=O)[C@@H](Cc2ccc(O)cc2)NC(C)=O)CCCCC1)C(=O)N[C@@H](Cc1c[nH]c2ccccc12)C(N)=O` [YA-387, Ac-(D-Tyr)-Hyp-Asn-A6c-Phe-azaGly-Leu-Arg(Me)-Trp-NH2] (Ac-[dY][Hyp]N[Ac6c]F[azaGly]L[Arg(Me)]W-NH2), for which the EC50 came out at 0.041 nM. For `CNC(=N)NCCC[C@H](NC(=O)[C@H](CC(C)C)NC(=O)NNC(=O)[C@H](Cc1ccccc1)NC(=O)[C@@H]1CCN1C(=O)[C@H](CC(N)=O)NC(=O)[C@@H]1C[C@@H](O)CN1C(=O)[C@@H](Cc1ccc(O)cc1)NC(C)=O)C(=O)N[C@@H](Cc1c[nH]c2ccccc12)C(N)=O` [YA-388, Ac-(D-Tyr)-Hyp-Asn-Aze-Phe-azaGly-Leu-Arg(Me)-Trp-NH2] (Ac-[dY][Hyp]N[Aze]F[azaGly]L[Arg(Me)]W-NH2), the EC50 was determined as 0.058 nM.

The same assay, now with this note: human kiss1 receptor (GPR54), NFAT-bla CHO-K1 cells, FRET; preliminary data; method of effect Embodiment 1; read-out: Preliminary measurement data (GPR54) EC50.
Regarding `CNC(=N)NCCC[C@H](NC(=O)[C@H](CC(C)C)NC(=O)[C@](C)(CC(C)C)NC(=O)[C@H](Cc1ccccc1)NC(=O)[C@@H](NC(=O)[C@H](CC(N)=O)NC(=O)[C@@H]1C[C@@H](O)CN1C(=O)[C@@H](Cc1ccc(O)cc1)NC(C)=O)[C@@H](C)O)C(=O)N[C@@H](Cc1c[nH]c2ccccc12)C(N)=O` [YA-370, Ac-(D-Tyr)-Hyp-Asn-Thr-Phe-(α-Me-Leu)-Leu-Arg(Me)-Trp-NH2] (Ac-[dY][Hyp]NTF[αMeL]L[Arg(Me)]W-NH2), the concentration giving a half-maximal response (EC50) worked out at 1.56 nM. For `CNC(=N)NCCC[C@H](NC(=O)[C@H](CC(C)C)NC(=O)[C@@H](NC(=O)[C@H](Cc1ccccc1)NC(=O)[C@@H](NC(=O)[C@H](CC(N)=O)NC(=O)[C@@H]1C[C@@H](O)CN1C(=O)[C@@H](Cc1ccc(O)cc1)NC(C)=O)[C@@H](C)O)C1CC1)C(=O)N[C@@H](Cc1c[nH]c2ccccc12)C(N)=O` [YA-396, Ac-(D-Tyr)-Hyp-Asn-Thr-Phe-Cpg-Leu-Leu-Arg(Me)-Trp-NH2] (Ac-[dY][Hyp]NTF[Gly(cPr)]L[Arg(Me)]W-NH2), the EC50 turned out to be 1.19 nM.
